From patent US8334403B1, “C-lysine conjugates as pH-controlled, light-activated reagents for double stranded DNA cleavage and associated methods” (Florida State University Research Foundation, Inc., priority 2005, dated 2012)

Tested on: three human clear cell renal cell carcinoma (RCC) cell lines (UMRC3, UMRC6, 786-O)
Test: RCC cell proliferation assay, three cell lines together
Assay type: cell-based
Conditions: 10 μM
Protocol: FIG. 23 provides the results of cell proliferation assays using three different RCC cell lines: (a) UMRC3, (b) UMRC6 and (c) 786-O, and compounds I-5; RCC cells were resuspended in media and treated with UV radiation (350 nm) for 10 minutes with and without indicated compounds; control cells were exposed to the indicated compound 1-5 at final concentration of 10 μM; cell numbers determined after 72 hours as described in the SI Section;
The ability of compounds 1-5 to inhibit cell proliferation in three human clear cell renal cell carcinoma (RCC) cell lines was tested in the dark and under photoactivation (FIG. 23). No difference was detected in the control experiments between cells not exposed to UV versus those that were exposed to UV at 350 nm for 10 minutes in any of the three RCC cell lines tested (FIG. 23 A, B & C; first two columns).

Cl.Cl.NCCCC[C@H](N)C(=O)Nc1ccc(C#Cc2ccccc2)cc1 [Compound 5, (S)-2,6-Diaminohexanoic acid [4-(phenylethynyl)-phenyl]-amide dihydrochloride]
cytotoxicity in the dark: considerably less cytotoxic in the dark
